Laboratory results published in patent publication US6361595B1, “Process for the preparation of pigment compositions” (Ciba Specialty Chemicals Corporation, priority 1999, dated 2002).
Several values for one entry are separate records, joined by “and”; a condition that tells them apart may be missing. Equal values may be shown once.

Key:
[1] = Colour strength on storage of pigment powder, tested in alkyd paint system; format: physicochemical
Method: The dried pigments are incorporated in a conventional manner into an alkyd paint system (SORBAL®P470, an alkyd resin ex DSM resins Ltd. having a solids content of 70%, white spirit, pigment and driers solution).
The dried powders are each divided into two portions. One portion is tested in the paint system immediately after drying. […] The tinting strengths are assessed visually and instrumentally.
The values correspond to the instrumentally-measured colour strength for the same pigment content in the paint.

[2] = tested on: mixed culture of Gram-positive cocci, Gram-negative cocci, Gram-positive rods and Gram-negative rods; assay: Microbial contamination of dried Pigment Yellow 65 powder (Example 2 procedure) after mixing filter cake with bacterial culture; format: cell-based, bacteria
Method: (§1) Susceptibility to microbial contamination is assessed according to the following procedure:
(§2) Microbial contamination is assessed using individual bacteria of the morphological types, Gram-positive cocci, Gram-negative cocci, Gram-positive rods and Gram-negative rods which are maintained on Nutrient Agar slopes. When required, each is cultured in Nutrient broth at 30° C. until an organism count of >10^8 colony-forming units (cfu) per milliliter (ml) is reached. The individual cultures are then mixed in equal proportions to provide a mixed culture which is then used immediately.
(§3) 10 mg of the sieved powder and one drop of sterile water are evenly spread on a Nutrient Agar plate with a glass spreader under aseptic conditions and the plate incubated at 30° C. for 48 hours, The number of bacterial colonies evident on each plate are then counted and expressed as the number of colony-forming units per gram (cfu/g).
(§4) 23.3 parts of acetic acid (100%) are added to a solution of 55 parts of acetoacet-o-anisidide dissolved in a solution of 25.5 parts of sodium hydroxide (47%) in 450 parts of water at a temperature of 0° C. The resultant slurry is reacted with 42.5 parts of o-nitro-p-anisidine previously diazotised with 45.4 parts of sodium nitrite (37%) and 56 parts of hydrochloric acid (36%) in the usual manner with simultaneous addition of sodium hydroxide solution (10%) to maintain pH 5.5-6.0. To the coupled slurry are then added 3 parts of dibutyl sebacate and 1 part of dimethylbenzyl-C12-14alkylammonium chloride (100% active) and the mixture is heated to a temperature of 100° C. and maintained at this temperature for one hour. The product is then filtered and washed with water under vacuum to remove soluble salts. The filter cake (still under vacuum suction) is mixed with a bacterial culture (10 ml of culture diluted to 100 ml with water) and vacuum suction is maintained until no further liquid emanates from the filter cake. The filter cake, without further washing, is then dried and converted to a powder by grinding. The powder is then passed through a 150 micron sieve.
The procedure described in Example 2 is repeated, but varying the type of biocide and amount of biocide used.
The procedure described in Example 2 is repeated, but varying the type of biocide and amount of biocide used and omitting the DBS.

[3] = tested on: mixed culture of Gram-positive cocci, Gram-negative cocci, Gram-positive rods and Gram-negative rods; assay: Microbial contamination of dried Pigment Yellow 74 powder (Example 1 procedure) after mixing filter cake with bacterial culture; format: cell-based, bacteria; conditions: PY74, 3 parts dibutyl sebacate, plate 30° C. 48 hours
Method: as §1, §2
as §4, with “(80%)” for “(100%)”, “p-nitro-o-anisidine” for “o-nitro-p-anisidine”, “cake(still” for “cake (still”, “water)and” for “water) and”
The procedure described in Example 1 is repeated, but varying the type of biocide and amount of biocide used. The procedure for determining the extent of microbial contamination is as follows:
as §3

[4] = tested on: mixed culture of Gram-positive cocci, Gram-negative cocci, Gram-positive rods and Gram-negative rods; assay: Microbial contamination of dried Pigment Yellow 13 powder (Example 5 procedure) after mixing filter cake with bacterial culture; format: cell-based, bacteria; conditions: PY13, no DBS
Method: as §1, §2, §3
A solution of 8.9 parts of acetic acid (100%) and 15 parts hydrochloric acid (36%) in 100 parts water are added to a solution of 63 parts of acetoacet-m-xylidide dissolved in a solution of 25.2 parts of sodium hydroxide (50%) in 676 parts of water at a temperature of 20° C. The resultant slurry is reacted with 36.9 parts of a previously tetrazotised solution of 3,3′-dichlorobenzidine, with simultaneous addition of sodium hydroxide solution (10%) to maintain pH 4.5-5.5. […] The product is then filtered and washed with water under vacuum to remove soluble salts. The filter cake (still under vacuum suction) is mixed with a bacterial culture (10 ml of culture diluted to 100 ml with water) and vacuum suction is maintained until no further liquid emanates from the filter cake. The filter cake, without further washing, is then dried and converted to a powder by grinding. The powder is then passed through a 150 micron sieve.

[5] = PY65, with 3 parts dibutyl sebacate, 0.5 parts biocide
[6] = PY65, with 3 parts dibutyl sebacate, 1.0 parts biocide
[7] = PY65, with 3 parts dibutyl sebacate, 3.0 parts biocide
[8] = PY65, with 3 parts dibutyl sebacate, 5.0 parts biocide
[9] = PY65, omitting the DBS, 0.5 parts biocide
[10] = PY65, omitting the DBS, 1.0 parts biocide
[11] = PY65, omitting the DBS, 3.0 parts biocide
[12] = PY65, omitting the DBS, 5.0 parts biocide

Molecule: COc1cc([N+](=O)[O-])ccc1/N=N/C(C(C)=O)C(=O)Nc1ccccc1OC (centres unmarked) [C.I. Pigment Yellow 74]
- loss of strength ([1]; initial versus last storage time at ambient temperature): 36 and 26 and 42
- amount of Pigment required, 3 weeks ([1]; powder stored at ambient temperature 3 weeks): 105 and 104
- amount of Pigment required, 6 weeks ([1]; powder stored at ambient temperature 6 weeks): 105 and 108
- colour strength, initial ([1]; powder tested immediately after drying, instrumentally-measured colour strength): 141 and 134 and 146

Molecule: CCCCn1sc2ccccc2c1=O [DN, n-Butylbenzisothiazolin-3-one]
- microbial contamination, colony-forming units per gram [2, 5]: >10^4 cfu/g
- microbial contamination, colony-forming units per gram [2, 6]: >10^4 cfu/g
- microbial contamination, colony-forming units per gram [2, 7]: >10^4 cfu/g
- microbial contamination, colony-forming units per gram [2, 8]: 8.0 × 10^2 cfu/g
- microbial contamination, colony-forming units per gram ([3]; 0.5 parts biocide): >10^4 cfu/g
- microbial contamination, colony-forming units per gram ([3]; 1.0 parts biocide): >10^4 cfu/g
- microbial contamination, colony-forming units per gram ([3]; 3.0 parts biocide): >10^3 cfu/g
- microbial contamination, colony-forming units per gram ([3]; 5.0 parts biocide): 0 cfu/g

Molecule: O=c1[nH]sc2ccccc12 [LV, 1,2-Benzisothiazolin-3-one]
- microbial contamination, colony-forming units per gram [2, 9]: >10^4 cfu/g
- microbial contamination, colony-forming units per gram [2, 10]: >10^4 cfu/g
- microbial contamination, colony-forming units per gram [2, 11]: >10^4 cfu/g
- microbial contamination, colony-forming units per gram [2, 12]: >10^4 cfu/g
- microbial contamination, colony-forming units per gram [2, 5]: >10^4 cfu/g
- microbial contamination, colony-forming units per gram [2, 6]: >10^4 cfu/g
- microbial contamination, colony-forming units per gram [2, 7]: >10^4 cfu/g
- microbial contamination, colony-forming units per gram [2, 8]: >10^4 cfu/g
- microbial contamination, colony-forming units per gram ([4]; 0.5 parts biocide): 3.0 × 10^3 cfu/g
- microbial contamination, colony-forming units per gram ([4]; 1.0 parts biocide): 4.0 × 10^2 cfu/g
- microbial contamination, colony-forming units per gram ([4]; 3.0 parts biocide): 1.0 × 10^2 cfu/g
- microbial contamination, colony-forming units per gram ([4]; 5.0 parts biocide): 6.0 × 10^2 cfu/g
- microbial contamination, colony-forming units per gram ([3]; 0.5 parts biocide): >10^5 cfu/g
- microbial contamination, colony-forming units per gram ([3]; 1.0 parts biocide): >10^5 cfu/g
- microbial contamination, colony-forming units per gram ([3]; 3.0 parts biocide): >10^5 cfu/g
- microbial contamination, colony-forming units per gram ([3]; 5.0 parts biocide): >10^5 cfu/g

Molecule: Cn1sccc1=O [MIT, Methylisothiazolin-3-one]
- microbial contamination, colony-forming units per gram [2, 9]: >10^5 cfu/g
- microbial contamination, colony-forming units per gram [2, 10]: >10^5 cfu/g
- microbial contamination, colony-forming units per gram [2, 11]: >10^5 cfu/g
- microbial contamination, colony-forming units per gram [2, 12]: >10^5 cfu/g
- microbial contamination, colony-forming units per gram [2, 5]: >10^4 cfu/g
- microbial contamination, colony-forming units per gram [2, 6]: >10^3 cfu/g
- microbial contamination, colony-forming units per gram [2, 7]: >10^3 cfu/g
- microbial contamination, colony-forming units per gram [2, 8]: 0 cfu/g
- microbial contamination, colony-forming units per gram ([4]; 0.5 parts biocide): >10^4 cfu/g
- microbial contamination, colony-forming units per gram ([4]; 1.0 parts biocide): 4.0 × 10^3 cfu/g
- microbial contamination, colony-forming units per gram ([4]; 5.0 parts biocide): 9.0 × 10^2 cfu/g
- microbial contamination, colony-forming units per gram ([3]; 0.5 parts biocide): 8.0 × 10^3 cfu/g
- microbial contamination, colony-forming units per gram ([3]; 1.0 parts biocide): 1.0 × 10^4 cfu/g
- microbial contamination, colony-forming units per gram ([3]; 3.0 parts biocide): 3.0 × 10^3 cfu/g
- microbial contamination, colony-forming units per gram ([3]; 5.0 parts biocide): 1.0 × 10^4 cfu/g

Molecule: CCCCCCCCn1sccc1=O [OTW, n-Octylisothiazolin-3-one]
- microbial contamination, colony-forming units per gram [2, 9]: >10^4 cfu/g
- microbial contamination, colony-forming units per gram [2, 10]: >10^4 cfu/g
- microbial contamination, colony-forming units per gram [2, 11]: >10^3 cfu/g
- microbial contamination, colony-forming units per gram [2, 12]: >10^3 cfu/g
- microbial contamination, colony-forming units per gram [2, 5]: >10^4 cfu/g
- microbial contamination, colony-forming units per gram [2, 6]: >10^4 cfu/g
- microbial contamination, colony-forming units per gram [2, 7]: >10^4 cfu/g
- microbial contamination, colony-forming units per gram [2, 8]: 0 cfu/g
- microbial contamination, colony-forming units per gram ([4]; 0.5 parts biocide): >10^4 cfu/g
- microbial contamination, colony-forming units per gram ([4]; 1.0 parts biocide): 5.0 × 10^3 cfu/g
- microbial contamination, colony-forming units per gram ([4]; 3.0 parts biocide): 0 cfu/g
- microbial contamination, colony-forming units per gram ([4]; 5.0 parts biocide): 0 cfu/g
- microbial contamination, colony-forming units per gram ([3]; 0.5 parts biocide): >10^4 cfu/g
- microbial contamination, colony-forming units per gram ([3]; 1.0 parts biocide): 2.0 × 10^4 cfu/g
- microbial contamination, colony-forming units per gram ([3]; 3.0 parts biocide): >10^4 cfu/g
- microbial contamination, colony-forming units per gram ([3]; 5.0 parts biocide): 1.4 × 10^3 cfu/g

Molecule: Benzyldimethyl-C16-18-alkylammonium chloride [DMHTB]
- microbial contamination, colony-forming units per gram ([3]; 0.5 parts biocide): >10^4 cfu/g
- microbial contamination, colony-forming units per gram ([3]; 1.0 parts biocide): 0 cfu/g
- microbial contamination, colony-forming units per gram ([3]; 3.0 parts biocide): 0 cfu/g
- microbial contamination, colony-forming units per gram ([3]; 5.0 parts biocide): 0 cfu/g

Molecule: Dimethyl-di-C12-14-alkylammonium chloride [Example 2C-75]
- microbial contamination, colony-forming units per gram ([3]; 0.5 parts biocide): 8.0 × 10^4 cfu/g
- microbial contamination, colony-forming units per gram ([3]; 1.0 parts biocide): 0 cfu/g
- microbial contamination, colony-forming units per gram ([3]; 3.0 parts biocide): 0 cfu/g
- microbial contamination, colony-forming units per gram ([3]; 5.0 parts biocide): 0 cfu/g

Molecule: Methylbenzyl-di-C16-18-alkylammonium chloride [Example M2HTB]
- microbial contamination, colony-forming units per gram ([3]; 0.5 parts biocide): >10^4 cfu/g
- microbial contamination, colony-forming units per gram ([3]; 1.0 parts biocide): 0 cfu/g
- microbial contamination, colony-forming units per gram ([3]; 3.0 parts biocide): 0 cfu/g
- microbial contamination, colony-forming units per gram ([3]; 5.0 parts biocide): 0 cfu/g

Molecule: Methylbis-(2-hydroxyethyl)-C12-14-alkylammonium chloride [EthO-12]
- microbial contamination, colony-forming units per gram ([3]; 0.5 parts biocide): >10^4 cfu/g
- microbial contamination, colony-forming units per gram ([3]; 1.0 parts biocide): 0 cfu/g
- microbial contamination, colony-forming units per gram ([3]; 3.0 parts biocide): 0 cfu/g
- microbial contamination, colony-forming units per gram ([3]; 5.0 parts biocide): 0 cfu/g

Molecule: Tetrakishydroxymethylphosphonium sulphate [THPS]
- microbial contamination, colony-forming units per gram [2, 9]: >10^5 cfu/g
- microbial contamination, colony-forming units per gram [2, 10]: >10^5 cfu/g
- microbial contamination, colony-forming units per gram [2, 11]: >10^5 cfu/g
- microbial contamination, colony-forming units per gram [2, 12]: >10^5 cfu/g
- microbial contamination, colony-forming units per gram [2, 5]: >10^5 cfu/g
- microbial contamination, colony-forming units per gram [2, 6]: >10^5 cfu/g
- microbial contamination, colony-forming units per gram [2, 7]: >10^5 cfu/g
- microbial contamination, colony-forming units per gram [2, 8]: >10^5 cfu/g
- microbial contamination, colony-forming units per gram ([4]; 0.5 parts biocide): >10^4 cfu/g
- microbial contamination, colony-forming units per gram ([4]; 1.0 parts biocide): >10^4 cfu/g
- microbial contamination, colony-forming units per gram ([4]; 3.0 parts biocide): >10^4 cfu/g
- microbial contamination, colony-forming units per gram ([4]; 5.0 parts biocide): >10^4 cfu/g
- microbial contamination, colony-forming units per gram ([3]; 0.5 parts biocide): >10^5 cfu/g
- microbial contamination, colony-forming units per gram ([3]; 1.0 parts biocide): >10^5 cfu/g
- microbial contamination, colony-forming units per gram ([3]; 3.0 parts biocide): >10^5 cfu/g
- microbial contamination, colony-forming units per gram ([3]; 5.0 parts biocide): >10^5 cfu/g

Molecule: Trimethyl-di-C12-14-alkylammonium chloride [Example C-35]
- microbial contamination, colony-forming units per gram ([3]; 0.5 parts biocide): >10^4 cfu/g
- microbial contamination, colony-forming units per gram ([3]; 1.0 parts biocide): 4.5 × 10^3 cfu/g
- microbial contamination, colony-forming units per gram ([3]; 3.0 parts biocide): 0 cfu/g
- microbial contamination, colony-forming units per gram ([3]; 5.0 parts biocide): 0 cfu/g
